Data reported in patent publication US20130005568A1, “SAFENED HERBICIDAL MIXTURES” (E.I. DU PONT DE NEMOURS AND COMPANY, priority 2011, published 2013).

Columns and labels:
sorghum hybrid WL09-6001 = test system: sorghum hybrid WL09-6001; design: species or system Sorghum bicolor (L.) Moench; details: in vivo
Text: (§1) For all of the following biological tests, plant response ratings were based on a 0-100 scale where zero is growth equivalent to that of untreated plants (no plant response) and 100 represents no additional growth occurring after herbicide treatment.
(§2) Cultivated sorghum varieties are generally very sensitive to acetohydroxy acid synthase-inhibiting herbicides such as rimsulfuron. To impart tolerance in sorghum hybrids WL09-6001 and WL09-6002 used in this test, plant breeders introduced a gene for acetohydroxy acid synthase (also known as acetolactate synthase) resistant to inhibition by certain acetohydroxy acid synthase-inhibiting herbicides, by breeding starting from a wild Sorghum genotype containing the resistance gene (see U.S. Patent Publication US 2008/0216187 A1).
(§3) Herbicide mixtures were formulated, dissolved/dispersed in water containing 1% crop oil concentrate, and sprayed postemergence to sorghum (Sorghum bicolor (L.) Moench) in the third collar growth stage (extended leaf height is 10-20 cm). Treated plants were grown under greenhouse conditions for two weeks before visual evaluations of plant responses were recorded.

sorghum hybrid WL09-6002 = test system: sorghum hybrid WL09-6002; design: species or system Sorghum bicolor (L.) Moench; details: in vivo
Text: as §1, §2, §3

spring wheat = assay: Test E: postemergence plant response rating; type: in vivo, Triticum aestivum L.; details: Compound 1 alone 125 g ai/ha; Test E plants
Text: as §1
(§4) Herbicide mixtures were formulated, dissolved/dispersed in water containing 0.25% non-ionic surfactant, sprayed postemergence to the crops: winter wheat (Triticum aestivum L.), spring wheat (Triticum aestivum L.), winter barley (Hordeum vulgare L.) and spring barley (Hordeum vulgare L.), and the weeds: blackgrass (Alopecurus myosuroides Huds.), lambsquarters (Chenopodium album L.) and pigweed (Amaranthus retroflexus L.). Treated plants were grown under greenhouse conditions for two weeks before visual evaluations of plant responses were recorded.

winter wheat [1] = assay: Test E: postemergence plant response rating; type: in vivo, Triticum aestivum L.; details: Compound 1 alone 125 g ai/ha; Test E plants
Text: as §1, §4

winter wheat [2] = assay: Test F: preemergence plant response rating; type: in vivo, Triticum aestivum L.; details: Compound 1 alone 125 g ai/ha; Test F plants
Text: as §1
(§5) Herbicide mixtures were formulated, dissolved/dispersed in water, and sprayed preemergence to the crops: winter wheat (Triticum aestivum L.) and winter barley (Hordeum vulgare L.), and the weed: blackgrass (Alopecurus myosuroides Huds). Treated plants were grown under greenhouse conditions for three weeks before visual evaluations of plant responses were recorded.

blackgrass = assay: Test F: preemergence plant response rating; type: in vivo, Alopecurus myosuroides Huds; details: Compound 1 alone 125 g ai/ha; Test F plants
Text: as §1, §5

Zoysia grass = assay: Test G: turf grass and weed postemergence plant response rating; type: in vivo, Zoysia japonica Steud.; details: Compound 1 alone 125 g ai/ha; Test G plants
Text: as §1
(§6) Plants of the turf grass species: zoysia (Zoysia japonica Steud.), bermudagrass (Cynodon dactylon (L.) Pers.), tall fescue (Festuca arundinacea Shreib.), creeping bentgrass (Agrostis stoonoifera L.), perennial ryegrass (Lolium perenne L.) and hard fescue (Festuca species) were grown under greenhouse conditions for four months. Plants were clipped as needed to plant heights of 5-10 cm. Weeds typically found in turf: annual bluegrass (Poa annua L.), common chickweed (Stellaria media (L.) Vill.), large crabgrass (Digitaria sanguinales (L.) Scop.), dandelion (Taraxacum officinale Weber in Wiggers), goosegrass (Eleusine indica (L.) Gaertn.), henbit (Lamium amplexicaule L.), venice mallow (Hibiscus trionium L.) and purple nutsedge (Cyperus rotundus L.) were also grown under greenhouse conditions so that plants were 5-20 cm tall when they were treated. Herbicide mixtures were formulated, dissolved/dispersed in water containing 0.25% non-ionic surfactant, and sprayed postemergence to these turf grasses and weeds. Treated plants were grown under greenhouse conditions for three weeks before visual evaluations of plant responses were recorded.

Bermudagrass = assay: as above; type: in vivo, Cynodon dactylon (L.) Pers.; details: Compound 1 alone 125 g ai/ha; Test G plants
Text: as §1
Plants of the turf grass species: zoysia (Zoysia japonica Steud.), bermudagrass (Cynodon dactylon (L.) Pers.), tall fescue (Festuca arundinacea Shreib.), creeping bentgrass (Agrostis stoonoifera L.), perennial ryegrass (Lolium perenne L.) and hard fescue (Festuca species) were grown under greenhouse conditions for four months. Plants were clipped as needed to plant heights of 5-10 cm. […] Herbicide mixtures were formulated, dissolved/dispersed in water containing 0.25% non-ionic surfactant, and sprayed postemergence to these turf grasses and weeds. Treated plants were grown under greenhouse conditions for three weeks before visual evaluations of plant responses were recorded.

Hard fescue = assay: as above; type: in vivo, Festuca species; details: Compound 1 alone 125 g ai/ha; Test G plants
Text: as §1, §6

Creeping bentgrass = assay: as above; type: in vivo, Agrostis stoonoifera L.; details: Compound 1 alone 125 g ai/ha; Test G plants
Text: as §1, §6

Perennial ryegrass = assay: as above; type: in vivo, Lolium perenne L.; details: Compound 1 alone 125 g ai/ha; Test G plants
Text: as §1, §6

Goosegrass = assay: as above; type: in vivo, Eleusine indica (L.) Gaertn.; details: Compound 1 alone 125 g ai/ha; Test G plants
Text: as §1, §6

Henbit = assay: as above; type: in vivo, Lamium amplexicaule L.; details: Compound 1 alone 125 g ai/ha; Test G plants
Text: as §1, §6

Venice mallow = assay: as above; type: in vivo, Hibiscus trionium L.; details: Compound 1 alone 125 g ai/ha; Test G plants
Text: as §1, §6

velvetleaf = assay: Test I: postemergence plant response rating; type: in vivo, Abutilon theophrasti Medik.; details: Compound 1 alone 125 g ai/ha; Test I plants
Text: as §1
Herbicide mixtures were formulated, dissolved/dispersed in water containing 0.25% non-ionic surfactant, and sprayed postemergence to the crop: soybean (Glycine max (L.) Merr.) at the 2-leaf growth stage and to weeds: lambsquarters (Chenopodium album L.) and velvetleaf (Abutilon theophrasti Medik.). Weed species were 5-10 cm tall when treated. Treated plants were grown under greenhouse conditions for two weeks before visual evaluations of plant responses were recorded.

sugarcane = assay: Test J: sugarcane postemergence plant response rating, field conditions; type: in vivo, Saccharum officinarum L.; details: Compound 1 alone 140 g ai/ha; Test J
Description: as §1
Herbicide mixtures were formulated, dissolved/dispersed in water containing 0.25% non-ionic surfactant, and sprayed postemergence to sugarcane (Saccharum officinarum L.) approximately 20-40 cm tall (extended leaf height). This test was conducted under field conditions. Visual evaluations of plant responses were recorded four weeks after the plants were treated.

palisade grass = assay: Test K: pasture grass postemergence plant response rating, field conditions; type: in vivo, Brachiaria brizantha (Hochst. ex A. Rich) Stapf; details: Compound 1 alone 140 g ai/ha; Test K plants
Text: as §1
(§7) Herbicide mixtures were formulated, dissolved/dispersed in water containing 0.25% non-ionic surfactant, and sprayed postemergence to the pasture grasses: Surinam grass (Brachiaria decumbens Stapf), palisade grass (Brachiaria brizantha (Hochst. ex A. Rich) Stapf) and Alexandergrass (Brachiaria plantaginea (Link) A. S. Hitchc.) approximately 10-30 cm tall (extended leaf height). This test was conducted under field conditions. Visual evaluations of plant responses were recorded four weeks after the plants were treated.

Alexandergrass = assay: as above; type: in vivo, Brachiaria plantaginea (Link) A. S. Hitchc.; details: Compound 1 alone 140 g ai/ha; Test K plants
Text: as §1, §7

Measured: injury, Compound 1 alone

Cc1ccccc1S(=O)(=O)NC(N)=O [Compound 1, N-(aminocarbonyl)-2-methylbenzenesulfonamide]
no injury: all assays above
